# Tested on: retinal pigment epithelial (RPE) cells
# Assay: RPE exosome release
# Format: cell-based
# Conditions: RPE cells incubated in media (DMEM) plus L-DOPA versus media alone (FIG. 3A)
# Description: Exosomes released from retinal pigment epithelial (RPE) cells can be isolated. […] Cells and cell debris are removed and exosomes are then purified. Note the present invention is not limited to this particular method of exosome isolation. In certain embodiments of the present invention, exosomes are not isolated for the measurement of levels of exosomes released from RPE cells. […] FIG. 3B illustrates GPR143 exosome release and its inhibition by L-DOPA. FIG. 4A and FIG. 4B show RPE exosome release studies in response to 30 minute treatments with 1 μM dopamine (FIG. 4A), 1 nM Dopamine 2 receptor (D2R) agonist (bromocriptine, FIG. 4B), and 1 nM Dopamine 2 receptor ([…]) antagonist (raclopride, FIG. 4B).
structure (smiles),measurement,value
N[C@@H](Cc1ccc(O)c(O)c1)C(=O)O [L-DOPA],exosome release from RPE cells,significant reduction in exosome release

# — patent US11927590B2, “Methods and systems for screening therapeutic compositions for treating age-related macular degeneration” (ARIZONA BOARD OF REGENTS ON BEHALF OF THE UNIVERSITY OF …, priority 2020, dated 2024)
